The target in assay [1] is T1, human recombinant adrenergic α2B receptor (Homo sapiens, UniProt P18089).
T1 construct: expressed in transfected cells; host or cells: CHO-K1 cells
T1 sequence (P18089 1-450): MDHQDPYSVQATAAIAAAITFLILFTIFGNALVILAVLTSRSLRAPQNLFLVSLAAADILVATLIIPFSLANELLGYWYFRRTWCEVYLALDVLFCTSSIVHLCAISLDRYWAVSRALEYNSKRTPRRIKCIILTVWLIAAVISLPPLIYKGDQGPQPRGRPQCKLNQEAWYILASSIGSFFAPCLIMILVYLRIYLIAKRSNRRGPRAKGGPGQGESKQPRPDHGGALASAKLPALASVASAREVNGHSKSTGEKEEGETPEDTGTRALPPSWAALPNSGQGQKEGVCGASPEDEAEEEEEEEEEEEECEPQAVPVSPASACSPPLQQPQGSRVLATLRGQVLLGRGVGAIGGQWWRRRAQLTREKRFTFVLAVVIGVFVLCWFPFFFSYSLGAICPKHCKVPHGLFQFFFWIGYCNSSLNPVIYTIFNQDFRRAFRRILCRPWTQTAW
In words: Adrenergic α2B radioligand binding ([3H]Rauwolscine). The arrangement: Inhibition of ligand binding, Adren. alpha2B: concentration or dose not given beside the values. The note with it: percent inhibition of specific binding. The procedure, abridged:
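Incubation ran 60 minutes at 25 °C in modified Tris-HCl buffer (50 mM, pH 7.4, 12.5 mM MgCl2, 1 mM EDTA, 0.2% BSA) using CHO-K1-expressed human receptor.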

Assay [2] has as its target T2, human recombinant serotonin (5-Hydroxytryptamine) 5-HT2C receptor (Homo sapiens, UniProt P28335).
T2 construct: expressed in transfected cells; host or cells: CHO-K1 cells
T2 sequence (P28335 33-458): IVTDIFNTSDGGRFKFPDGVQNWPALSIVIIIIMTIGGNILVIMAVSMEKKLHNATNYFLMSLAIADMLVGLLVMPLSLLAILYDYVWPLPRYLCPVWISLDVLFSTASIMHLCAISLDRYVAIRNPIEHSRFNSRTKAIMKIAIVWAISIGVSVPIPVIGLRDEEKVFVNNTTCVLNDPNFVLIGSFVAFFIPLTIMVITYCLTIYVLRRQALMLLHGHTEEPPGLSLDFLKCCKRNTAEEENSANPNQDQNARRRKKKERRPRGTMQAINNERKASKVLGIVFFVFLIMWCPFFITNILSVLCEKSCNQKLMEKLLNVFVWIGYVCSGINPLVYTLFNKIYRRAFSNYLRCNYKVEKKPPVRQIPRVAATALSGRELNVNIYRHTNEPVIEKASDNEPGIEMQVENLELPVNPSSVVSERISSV
Nature of the assay: Serotonin 5-HT2C radioligand binding ([3H]Mesulergine). The arrangement: Inhibition of ligand binding, Ser. 5-HT2C: concentration or dose not given beside the values. Conditions: percent inhibition of specific binding. The method, then:
Compounds of the invention were incubated with 1 nM [^3H]Mesulergine for 60 minutes at 25° C. Non-specific binding was estimated in the presence of 1 μM Mianserin. Receptor proteins were filtered and washed, the filters were then counted to determine [^3H]Mesulergine specifically bound. […] Biochemical assay results are presented as the percent inhibition of specific binding in Table 6.

Assay [3] addresses T3, human recombinant histamine H2 receptor (Homo sapiens, UniProt P25021).
T3 construct: expressed in transfected cells; host or cells: CHO-K1 cells
In words: Histamine H2 radioligand binding ([125I]Aminopotentidine). The procedure, abridged:
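This radioligand binding assay measured displacement of [125I]Aminopotentidine from recombinant human histamine H2 receptors. Compounds were dissolved in 1% DMSO vehicle. Specific binding was calculated by subtracting non-specific binding, defined using 3 μM Tiotidine, and activity was reported as percentage inhibition of that specific binding.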

For assay [4], the target named is T4, Serotonin (5-Hydroxytryptamine) 5-HT7 (Homo sapiens, UniProt P34969).
T4 construct: expressed in transfected cells; host or cells: CHO cells
Nature of the assay: Serotonin 5-HT7 radioligand binding ([3H]LSD). Further details: Inhibition of ligand binding, Ser. 5-HT7: concentration or dose not given beside the values. Conditions: percent inhibition of specific binding. The method, then:
Lysergic acid diethylamide (LSD) for 2 hours at 25° C. […] Receptor proteins were filtered and washed, the filters were then counted to determine [^3H]LSD specifically bound. […] Biochemical assay results are presented as the percent inhibition of specific binding in Table 6.

Setting [5] is: percent inhibition of specific binding, screened at 1 μM, read-out: Inhibition of ligand binding, Hist. H2.
The mark [6] stands for this setting: read-out: Inhibition of ligand binding, Hist. H2.

Like-named read-outs stand apart in the source and are kept apart here.

T4 sequence (P34969 whole entry): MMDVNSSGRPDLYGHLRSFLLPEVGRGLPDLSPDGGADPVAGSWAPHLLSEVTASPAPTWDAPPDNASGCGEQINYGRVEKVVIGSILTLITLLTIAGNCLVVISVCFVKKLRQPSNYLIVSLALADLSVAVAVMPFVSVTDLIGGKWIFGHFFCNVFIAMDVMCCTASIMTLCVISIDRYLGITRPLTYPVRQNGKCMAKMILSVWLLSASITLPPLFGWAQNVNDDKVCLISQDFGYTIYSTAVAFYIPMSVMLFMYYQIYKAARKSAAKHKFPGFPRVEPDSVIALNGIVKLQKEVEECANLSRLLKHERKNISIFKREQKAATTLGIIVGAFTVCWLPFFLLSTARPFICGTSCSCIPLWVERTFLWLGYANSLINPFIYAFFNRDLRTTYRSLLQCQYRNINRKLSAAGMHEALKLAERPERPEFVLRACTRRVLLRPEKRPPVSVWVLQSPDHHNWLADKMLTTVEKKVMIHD
T3 sequence (P25021 whole entry): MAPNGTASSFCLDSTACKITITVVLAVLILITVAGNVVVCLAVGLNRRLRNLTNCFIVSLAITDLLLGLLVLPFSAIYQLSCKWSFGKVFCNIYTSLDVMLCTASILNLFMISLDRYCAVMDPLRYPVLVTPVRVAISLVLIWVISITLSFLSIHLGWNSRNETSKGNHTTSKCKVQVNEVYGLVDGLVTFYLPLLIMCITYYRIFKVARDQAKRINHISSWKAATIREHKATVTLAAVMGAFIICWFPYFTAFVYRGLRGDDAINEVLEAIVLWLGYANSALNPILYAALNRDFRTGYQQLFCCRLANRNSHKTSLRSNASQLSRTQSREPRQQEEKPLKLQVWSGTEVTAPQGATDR

Usually inhibition stands for the drop in the measured response relative to a control, in per cent. Consider `Cc1ccc2c(c1)c1c(n2CCc2ccc(C)nc2)CCN(C2CC2)C1` [Compound 51], for which, in assay [1], the “Inhibition of ligand binding, Adren. alpha2B” value (shortened to “Inhibition … Adren. alpha2B”) is given as 10%. For the same molecule, the “Inhibition of ligand binding, Ser. 5-HT2C” value (“Inhibition … Ser. 5-HT2C” for short) in assay [2] stood at 2%. For the same molecule, in assay [3] (setting [5]), the inhibition at 1 µM was found to be 17%. For the same molecule, the “Inhibition of ligand binding, Ser. 5-HT7” value in assay [4] is given as 17%.

Turning to `Cc1ccc(CCn2c3c(c4cc(C(F)(F)F)ccc42)CN(C)CC3)cn1` [Compound 53], the “Inhibition … Adren. alpha2B” value in assay [1] worked out at 34%. Also, the “Inhibition … Ser. 5-HT2C” value in assay [2] was 12%. Further, the inhibition at 1 µM in assay [3] (setting [5]) came to 4%. The “Inhibition of ligand binding, Ser. 5-HT7” value in assay [4] is 49%.

As for `CN1CCc2c(c3cc(C(F)(F)F)ccc3n2CCc2ccccc2)C1` [Compound 80, 8-(trifluoromethyl)-2,3,4,5-tetrahydro-2-methyl-5-phenethyl-1H-pyrido[4,3-b]indole], the “Inhibition … Adren. alpha2B” value in assay [1] is reported as 105%. Further, the “Inhibition … Ser. 5-HT2C” value in assay [2] worked out at 90%. For the same molecule, the inhibition at 1 µM in assay [3] (setting [5]) was 71%. Besides, in assay [4], the “Inhibition of ligand binding, Ser. 5-HT7” value stood at 92%.

As for `CN1CCc2c(c3c(Cl)cccc3n2CCc2ccccc2)C1` [Compound 81], the “Inhibition … Adren. alpha2B” value in assay [1] is reported as 90%. The “Inhibition … Ser. 5-HT2C” value in assay [2] was 98%. Moreover, the inhibition at 1 µM in assay [3] (setting [5]) is 57%. Further, the “Inhibition of ligand binding, Ser. 5-HT7” value in assay [4] was found to be 89%.

Consider `CN1CCc2c(c3ccc(Cl)cc3n2CCc2ccccc2)C1` [Compound 82], for which the “Inhibition … Adren. alpha2B” value in assay [1] worked out at 99%. In addition, the “Inhibition … Ser. 5-HT2C” value in assay [2] stood at 95%. In assay [3] (setting [5]), the inhibition at 1 µM came to 99%. In addition, the “Inhibition of ligand binding, Ser. 5-HT7” value in assay [4] stood at 100%.

Take `CN1CCc2c(c3cc(Cl)ccc3n2CCC2CCCCC2)C1` [Compound 164, 8-chloro-5-(2-cyclohexylethyl)-2,3,4,5-tetrahydro-2-methyl-1H-pyrido[4,3-b]indole]: the “Inhibition … Adren. alpha2B” value in assay [1] came to 93%. Further, the “Inhibition … Ser. 5-HT2C” value in assay [2] worked out at 95%. For the same molecule, the inhibition at 1 µM in assay [3] (setting [5]) was determined as 84%. Also, in assay [4], the “Inhibition of ligand binding, Ser. 5-HT7” value is 92%.

With `CN1CCc2c(c3cc(Cl)ccc3n2CCN2CCOCC2)C1` [Compound 186, 8-chloro-2,3,4,5-tetrahydro-2-methyl-5-(2-morpholinoethyl)-1H-pyrido[4,3-b]indole], the “Inhibition … Adren. alpha2B” value in assay [1] came out at 79%. In addition, in assay [2], the “Inhibition … Ser. 5-HT2C” value worked out at 89%. In assay [3] (setting [5]), the inhibition at 1 µM is 25%. The “Inhibition of ligand binding, Ser. 5-HT7” value in assay [4] is given as 57%.

As to `CN1CCc2c(c3c(Cl)cccc3n2CCC2CCCCC2)C1` [Compound 187, 9-chloro-5-(2-cyclohexylethyl)-2,3,4,5-tetrahydro-2-methyl-1H-pyrido[4,3-b]indole], the “Inhibition … Adren. alpha2B” value in assay [1] stood at 57%. Besides, in assay [2], the “Inhibition … Ser. 5-HT2C” value stood at 77%. The inhibition at 1 µM in assay [3] (setting [5]) came to 69%. Further, the “Inhibition of ligand binding, Ser. 5-HT7” value in assay [4] turned out to be 77%.

With `CN1CCc2c(c3ccc(Cl)cc3n2CCC2CCCCC2)C1` [Compound 188, 7-chloro-5-(2-cyclohexylethyl)-2,3,4,5-tetrahydro-2-methyl-1H-pyrido[4,3-b]indole], the “Inhibition … Adren. alpha2B” value in assay [1] turned out to be 65%. Further, the “Inhibition … Ser. 5-HT2C” value in assay [2] is on record as 66%. For the same molecule, the inhibition at 1 µM in assay [3] (setting [5]) stood at 72%. Besides, in assay [4], the “Inhibition of ligand binding, Ser. 5-HT7” value is reported as 41%.

On to `Cc1ccc2c(c1)c1c(n2CCc2ccc(C)nc2)CC(=O)N(C)C1` [Compound 195, 1,2-dihydro-2,8-dimethyl-5-(2-(6-methylpyridin-3-yl)ethyl)-4H-pyrido[4,3-b]indol-3(5H)-one], for which the “Inhibition … Adren. alpha2B” value in assay [1] amounted to 7%. Also, the “Inhibition … Ser. 5-HT2C” value in assay [2] is recorded as −5%. In addition, the inhibition at 1 µM in assay [3] (setting [5]) amounted to 22%. In addition, the “Inhibition of ligand binding, Ser. 5-HT7” value in assay [4] came out at 2%.

In the case of `Cc1ccc2c(c1)c1c(n2CCc2ccccc2)CC(O)N(C)C1=O` (stereo not shown) [Compound 215, 3,4-dihydro-3-hydroxy-2,8-dimethyl-5-phenethyl-2H-pyrido[4,3-b]indol-1(5H)-one], in assay [1], the “Inhibition … Adren. alpha2B” value is listed as −4%. Also, the “Inhibition … Ser. 5-HT2C” value in assay [2] is listed as 2%. Also, the inhibition at 1 µM in assay [3] (setting [6]) was 16%. Also, in assay [4], the “Inhibition of ligand binding, Ser. 5-HT7” value is given as 10%.

In the case of `Cc1ccc2c(c1)c1c(n2CCc2ccc(C)nc2)CCN(C)C1=O` [Compound 216], in assay [1], the “Inhibition … Adren. alpha2B” value stood at 3%. Moreover, the “Inhibition … Ser. 5-HT2C” value in assay [2] is on record as −11%. The inhibition at 1 µM was 11% in assay [3] (read-out: Histamine Binding H2, percent inhibition of specific binding) and 11% in assay [3] (setting [6]). Besides, the “Inhibition of ligand binding, Ser. 5-HT7” value in assay [4] was 18%.

For the molecule `Cc1ccc2c(c1)c1c(n2CCN2CCCCC2)CCN(C)C1` [Compound 224, 2,3,4,5-tetrahydro-2,8-dimethyl-5-(2-(piperidin-1-yl)ethyl)-1H-pyrido[4,3-b]indole], in assay [1], the “Inhibition … Adren. alpha2B” value was 46%. In assay [2], the “Inhibition … Ser. 5-HT2C” value came to 74%. Also, the inhibition at 1 µM in assay [3] (setting [5]) turned out to be 79%. In addition, in assay [4], the “Inhibition of ligand binding, Ser. 5-HT7” value worked out at 61%.

On to `Cc1ccc2c(c1)c1c(n2CCc2ccccc2)CCN(C(=O)OCC(Cl)(Cl)Cl)C1` [Compound 227, 2,2,2-trichloroethyl 3,4-dihydro-8-methyl-5-phenethyl-1H-pyrido[4,3-b]indole-2(5H)-carboxylate], for which the “Inhibition … Adren. alpha2B” value in assay [1] amounted to 0%. Besides, the “Inhibition … Ser. 5-HT2C” value in assay [2] worked out at 4%. In addition, the inhibition at 1 µM in assay [3] (setting [5]) was 1%. In addition, the “Inhibition of ligand binding, Ser. 5-HT7” value in assay [4] is given as −8%.

In the case of `Cc1ccc2c(c1)c1c(n2CCc2ccccc2)CCNC1` [Compound 228, 2,3,4,5-tetrahydro-8-methyl-5-phenethyl-1H-pyrido[4,3-b]indole], the “Inhibition … Adren. alpha2B” value in assay [1] amounted to 101%. Also, the “Inhibition … Ser. 5-HT2C” value in assay [2] is listed as 82%. Further, in assay [3] (setting [5]), the inhibition at 1 µM turned out to be 15%. In addition, the “Inhibition of ligand binding, Ser. 5-HT7” value in assay [4] is 95%.

Take `Cc1ccc2c(c1)c1c(n2CCc2ccc(C(=O)O)nc2)CCNC1` [Compound 262]: the “Inhibition … Adren. alpha2B” value in assay [1] is on record as −2%. For the same molecule, the “Inhibition … Ser. 5-HT2C” value in assay [2] is listed as 6%. The inhibition at 1 µM in assay [3] (setting [5]) is -8%. In addition, the “Inhibition of ligand binding, Ser. 5-HT7” value in assay [4] is recorded as 6%.

In the case of `Cc1ccc2c(c1)c1c(n2CCC(=O)N2CCC(NC(=O)OC(C)(C)C)CC2)CCN(C)C1` [Compound 393, tert-butyl 1-(3-(1,2,3,4-tetrahydro-2,8-dimethylpyrido[4,3-b]indol-5-yl)propanoyl)piperidin-4-ylcarbamate], in assay [1], the “Inhibition … Adren. alpha2B” value is on record as 28%. Also, the “Inhibition … Ser. 5-HT2C” value in assay [2] stood at 26%. For the same molecule, the inhibition at 1 µM in assay [3] (setting [5]) was found to be 3%. Also, the “Inhibition of ligand binding, Ser. 5-HT7” value in assay [4] turned out to be 8%.

As to `Cc1ccc2c(c1)c1c(n2CCc2ccc(C)[n+]([O-])c2)CCN(C)C1` [Compound 394, 5-(2-(2,8-dimethyl-3,4-dihydro-1H-pyrido[4,3-b]indol-5(2H)-yl)ethyl)-2-methylpyridine 1-oxide], the “Inhibition … Adren. alpha2B” value in assay [1] was determined as 19%. In addition, the “Inhibition … Ser. 5-HT2C” value in assay [2] is reported as −8%. The inhibition at 1 µM in assay [3] (setting [5]) is -2%. Further, the “Inhibition of ligand binding, Ser. 5-HT7” value in assay [4] was found to be 7%.
